Measured values as given in the OligoGym collection.
HELM strings list units from the 5' end as sugar, base in round brackets, then linkage (d deoxyribose, r ribose, m 2'-O-methyl, p phosphodiester). Strings are as the collection lists them, not checked against the first reports. ss, as = sense and antisense strand; [lna] = locked nucleic acid (LNA); [hna] = hexitol nucleic acid; [s4r] = 4'-thioribose; [fl2r] = 2'-fluoro

Details: siRNA
Also: test system not given here.

RNA1{r(C)p.r(G)p.r(U)p.r(A)p.r(C)p.r(G)p.r(C)p.r(G)p.r(G)p.r(A)p.r(A)p.r(U)p.r(A)p.r(C)p.r(U)p.r(U)p.r(C)p.r(G)p.r(A)p.r(T)p.r(T)}|RNA2{r(U)p.r(C)p.r(G)p.r(A)p.r(A)p.r(G)p.r(U)p.r(A)p.r(U)p.r(U)p.r(C)p.r(C)p.r(G)p.r(C)p.r(G)p.[s4r](U)p.[s4r](A)p.[s4r](C)p.[s4r](G)p.r(T)p.r(T)}$$$RNA1{StrandType:ss}|RNA2{StrandType:as}$
target mRNA knockdown: 85.6%

RNA1{r(U)p.m(U)p.r(A)p.r(A)p.r(G)p.r(G)p.r(A)p.r(G)p.r(A)p.r(A)p.r(G)p.r(C)p.r(U)p.r(G)p.r(A)p.r(C)p.r(G)p.r(G)p.r(C)p.r(T)p.r(T)}|RNA2{r(G)p.r(C)p.r(C)p.r(G)p.r(U)p.m(C)p.r(A)p.r(G)p.r(C)p.r(U)p.r(U)p.r(C)p.r(U)p.r(C)p.r(C)p.r(U)p.m(U)p.r(A)p.r(A)p.r(T)p.r(T)}$$$RNA1{StrandType:ss}|RNA2{StrandType:as}$
target mRNA knockdown: 83%

RNA1{[hna](G)p.[hna](A)p.[hna](C)p.r(G)p.r(U)p.r(A)p.r(A)p.r(A)p.r(C)p.r(G)p.r(G)p.r(C)p.r(C)p.r(A)p.r(C)p.r(A)p.r(A)p.[hna](G)p.[hna](U)p.r(U)p.d(T)}|RNA2{r(A)p.r(C)p.[lna](T)p.r(U)p.r(G)p.[lna](T)p.r(G)p.r(G)p.r(C)p.r(C)p.r(G)p.r(U)p.r(U)p.[lna](T)p.r(A)p.r(C)p.r(G)p.[lna](T)p.r(C)p.[lna](G)p.[lna](C)}$$$RNA1{StrandType:ss}|RNA2{StrandType:as}$
target mRNA knockdown: 5.4%

RNA1{m(G)p.r(U)p.m(C)p.r(U)p.m(A)p.r(U)p.m(G)p.r(C)p.m(C)p.r(A)p.m(A)p.r(G)p.m(A)p.r(A)p.m(G)p.r(G)p.m(G)p.r(A)p.m(G)p.r(T)p.r(T)}|RNA2{r(C)p.r(U)p.r(C)p.r(C)p.r(C)p.r(U)p.r(U)p.r(C)p.r(U)p.r(U)p.r(G)p.r(G)p.r(C)p.r(A)p.r(U)p.r(A)p.r(G)p.r(A)p.r(C)p.r(T)p.r(T)}$$$RNA1{StrandType:ss}|RNA2{StrandType:as}$
target mRNA knockdown: 24%

RNA1{r(C)p.r(U)p.[fl2r](A)p.r(G)p.r(A)p.r(G)p.r(G)p.r(A)p.r(U)p.r(C)p.r(U)p.r(U)p.r(G)p.r(A)p.r(A)p.r(G)p.r(A)p.r(C)p.r(C)p.r(T)p.r(T)}|RNA2{r(G)p.r(G)p.r(U)p.r(C)p.r(U)p.r(U)p.r(C)p.r(A)p.r(A)p.r(G)p.r(A)p.r(U)p.r(C)p.r(C)p.r(U)p.r(C)p.[fl2r](U)p.r(A)p.r(G)p.r(T)p.r(T)}$$$RNA1{StrandType:ss}|RNA2{StrandType:as}$
target mRNA knockdown: 82%

RNA1{[s4r](A)p.[s4r](A)p.[s4r](A)p.[s4r](C)p.r(A)p.r(U)p.r(G)p.r(C)p.r(A)p.r(G)p.r(A)p.r(A)p.r(A)p.r(A)p.r(U)p.[s4r](G)p.[s4r](C)p.[s4r](U)p.[s4r](G)p.r(T)p.r(T)}|RNA2{r(C)p.r(A)p.r(G)p.r(C)p.r(A)p.r(U)p.r(U)p.r(U)p.r(U)p.r(C)p.r(U)p.r(G)p.r(C)p.r(A)p.r(U)p.[s4r](G)p.[s4r](U)p.[s4r](U)p.[s4r](U)p.r(T)p.r(T)}$$$RNA1{StrandType:ss}|RNA2{StrandType:as}$
target mRNA knockdown: 91%

RNA1{r(C)p.r(U)p.r(C)p.r(U)p.r(C)p.r(C)p.r(U)p.[fl2r](A)p.r(C)p.r(C)p.r(U)p.r(U)p.r(C)p.r(U)p.r(C)p.r(C)p.r(U)p.r(C)p.r(U)p.r(T)p.r(T)}|RNA2{r(A)p.r(G)p.r(A)p.r(G)p.r(G)p.r(A)p.r(G)p.r(A)p.r(A)p.r(G)p.r(G)p.r(U)p.r(A)p.r(G)p.r(G)p.r(A)p.r(G)p.r(A)p.r(G)p.r(T)p.r(T)}$$$RNA1{StrandType:ss}|RNA2{StrandType:as}$
target mRNA knockdown: 78%
